SMILES strings stand for the structures.

Experiment [1] has as its system white blood cell (WBC) count. The method, then: Eight patients received AMD-3100 at infusion dose rates of 2.5 μg/kg/hr (patients 1-4) and 5.0 μg/kg/hr (patients 5-8).
Experiment [2] has as its system white blood cell (WBC) count. The procedure: Eleven human patients having initial white blood cell counts of 4,000-6,500 cells/mm^3 were used in the study. An intravenous dosing solution of AMD3100 (i.e., 1,1′-[1,4-phenylene-bis(methylene)]-bis-1,4,8,11-tetraazacyclotetradecane) were prepared from a stock solution which is a 1 mg/ml 1:10 dilution of a concentrate in 0.9% saline (normal saline) under sterile conditions. Aliquots from this stock solution were added to 50-ml bags of 0.9% saline for intravenous injection in amounts to achieve the desired dosage levels (10 μg/kg-80 μg/kg).
The subjects described in this example already contained an indwelling peripheral intravenous catheter. The prescribed amount of AMD3100 was administered over 15 minutes by intravenous fusion in a single dose. Blood samples were obtained prior to the dose, and at various times up to 24 hours after dose administration.
Eleven human subjects received intravenous administration of AMD-3100 at doses 10, 20, 40, and 80 μg/kg. Five subjects also received a single subcutaneous injection of AMD-3100 at doses of 40 and 80 μg/kg. Three patients were administered dosages of 10 μg/kg (open circles); 3 patients were administered dosages of 20 μg/kg (solid circles); 3 patients were administered 40 μg/kg (open triangles); and 2 patients were administered 80 μg/kg (closed triangles).
This is another data set of the same source.

On to `c1cc(CN2CCCNCCNCCCNCC2)ccc1CN1CCCNCCNCCCNCC1` [AMD3100, 1,1′-[1,4-phenylene-bis(methylene)]-bis-1,4,8,11-tetraazacyclotetradecane], for which the “time for WBC counts to return to baseline after discontinuation of the infusion” value in experiment [1] (continuous infusion 2.5 or 5.0 μg/kg/hr for up to 10 days, HIV-infected patients) came out at 7 days. The “ability to enhance WBC count in human patients” value in experiment [1] (following single dose or with continuous infusion) was “consistently able to enhance WBC count”. For the same compound, the “effect on white blood cell count after administration” value in experiment [2] (all 11 patients, 10, 20, 40, 80 μg/kg i.v. over 15 minutes, single dose, over the succeeding 5-10 hours, tapered off after about 24 hours, not returning to original level) was “marked increase in white blood cell count”. Besides, the “white blood cell count, peak value” in experiment [2] (one patient who received 80 μg/kg i.v., from 6,000 cells/mm^3 before dose) is 19,000 cells/mm^3. Moreover, the “white blood cell count after increase” value in experiment [2] (patient showing the least response, 20 μg/kg i.v., from about 6,300 cells/mm^3) is listed as “about 9,000 cells/mm^3”.
